Results as given in US20260191817A1, “FIBROBLAST MODULATORS IN STROMA-RICH TUMORS” (UNIVERSITEIT GENT, priority 2022, published 2026).
“Also recorded” adds a separate entry of the source.

Legend:
[1] = system: 13B2 hTERT breast CAFs; experiment: AFM spheroid stiffness, 13B2 hTERT breast CAFs; type: cell-based, human; conditions: for Young's modulus / spheroid stiffness: 1 μM, 48 h during spheroid formation
Excerpt: It is well established that an increased tumor and ECM stiffness is associated with a negative prognosis as it promotes tumor growth, progression, therapy resistance, immunosuppression and metastasis. Stiffness is chiefly regulated by the action of the CAFs in the TME. Stiffness modulation is, therefore, a fitting read-out of activity in a screen for CAF modulators. To assess stiffness modulation, the stiffness of spheroids of CAF cells treated with test compounds was interrogated using atomic force microscopy (AFM) indentation and compared with untreated cells. AFM measurement of the stiffness (elasticity) of cells and spheroids is a technique well-known to those skilled in the art. AFM measures the force required to create a given deflection, this read-out is also known as the Young's modulus. AFM is widely used in biology and cancer research: altered physicochemical properties of live cells serve as a read-out of altered complex physiological processes.
U-shaped, 384-well ULA plates (cat. no. MS-9384UZ, S-bio) were seeded with a suspension of cell-specific culture media with cells. Cells were allowed to form spheroids for an appropriate time under treatment conditions before use in experiments. Cell culture dishes (cat. no. 734-2814, VWR) were filled with collagen gel and placed at 37° C. for an appropriate time to allow solidification. For each condition, spheroids were pooled in one cell culture dish. The medium was removed (stored at 37° C.) to promote attachment of the bottom of each spheroid to the collagen gel. The cell culture dishes were incubated at 37° C. After the incubation period, the stored medium was carefully (prevent detachment of spheroids) added to the dishes.
Mechanical measurements were performed using an atomic force microscope. To indent the spheroids an in-house made colloidal probe was used. Force curves were collected using an appropriate setpoint and probe speed (depending on the stiffness of the spheroids). On each spheroid multiple force curves were collected. Collected curves were then processed using the JPK DP software. Young's modulus was extracted from the force curves. All experiments were performed in biological triplicate.
To generate 3D cultures mimicking the complexity and pathophysiology of in vivo tumors, spheroids were used (cfr. point 4). Spheroids are considered to better simulate cellular heterogeneity, nutrient and oxygen gradients, cell-cell interactions, cell-matrix interactions, gene expression profiles, stromal interactions, therapeutic responses, multicellular resistance, drug penetration and anti-apoptotic signaling.

[2] = system: 13B2 hTERT, CT5.3 hTERT, HCA2 hTERT, MCF-7/6 and 4T1-Luc cells; experiment: 2D CellTiter-Glo Cell Viability Assay; type: cell-based; conditions: 48 h of treatment
Method: The half maximal inhibitory concentration (IC50) of A1 was evaluated using a CellTiter-Glo® 2.0 Cell Viability Assay (cat. no. G9243, Promega) and a CellTiter-Glo® 3D Cell Viability Assay (cat. no. G9681, Promega). 13B2 hTERT cells (2D: 2×10^5, 3D: 8×10^4) were plated in each well of a Nunc™ MicroWell™ 96-Well, Nunclon Delta-Treated, Flat-Bottom Microplate (cat. no. 167008, Thermo Fisher Scientific) for 2D experiments or 96-well ULA plate (cat. no. MS-9096UZ, S-bio) in a volume of 90 μL/well. A1 was serially diluted in the appropriate medium to 10× the final concentrations. For each treatment condition, 10 μL was added to 3 replicate wells (final concentrations ranging from 1-100 μM) and plates were incubated for 48 h.
The CellTiter-Glo Cell Viability Assay was performed according to manufacturer's instructions. Briefly, the plates and the CellTiter-Glo® Reagent were equilibrated to room temperature (RT). The CellTiter-Glo® Reagent was added to each well in a 1:1 (v/v) ratio. For 2D experiments, cell lysis was induced by placing the plates on an orbital shaker for 2 min, followed by stabilization of the luminescent signal for 10 min. […] Afterwards, the luminescence was measured using a Synergy™ HTX Multi-Mode Microplate Reader (BioTek). The IC50 value was determined using the Graphpad Prism software. […]

[3] = system: human invasive MCF-7/6 mammary carcinoma cells; experiment: Chick heart invasion (CHI) assay with MCF-7/6 aggregates; type: cell-based; conditions: MCF7/6, 192 h, lowest concentration at which an anti-invasive effect (histological grade I or II) was observed, 8 days, read-out: Lowest active concentration
Method: Chick heart invasion assays were performed as described earlier (Bracke et al. 2014). Precultured heart fragments of 9-day-old chicken embryos were confronted with MCF-7/6 aggregates on top of a semi-solid agar at 37° C. overnight, after which the confronting pairs were cultured in suspension for 8 days at 37° C., 10% CO2 in presence or absence of a test compound (in duplo). This procedure can also be performed with aggregates of 4T1-Luc cells, for which the suspension culture of the confronting pairs is performed for 3.5 days. All compounds were evaluated at 1 μM and 100 nM; depending on the outcome higher or lower concentrations were subsequently evaluated. Upon fixation in Bouin-Hollande, the cultures were dehydrated and embedded in paraffin. Sections of the confrontation cultures were stained with hematoxylin-eosin are blinded and scored by a trained person (Bracke et al., 2014).
In the chick heart invasion assay cancer cells are confronted with a fragment of normal tissue, so as not to neglect the contribution of the host tissue in the micro-ecosystem that governs tumor behavior. As such, precultured heart tissue fragments (PHFs), dissected from 9-day-old chicken embryos, may be confronted with aggregates of human invasive MCF-7/6 mammary carcinoma cells or other cells in the presence of a certain concentration of a test compound. After eight days for MCF-7/6, or another period depending on the cell type, the interaction between the cancer cells and the PHF is evaluated histologically and classified along a 5-grades subjective scale (Bracke et al. 2014). Grades III and IV are typical for invasion, while grades 0, I and II correspond to absence of invasion. Compounds that inhibit invasion of confronting cancer cells i.e. from III/IV to 0/I/II, are determined as anti-invasive. Possible alternative assays generally known in the art are the type I collagen invasion assay, wound healing assay and the matrigel invasion assay.
The chick heart invasion (CHI) assay is a phenotypic assay that confronts precultured heart tissue fragments (PHFs, ‘normal tissue’), obtained from 9-day-old chicken embryos, with aggregates of human invasive MCF-7/6 mammary carcinoma cells (Bracke et al. 2014). In the control situation, the MCF-7/6 cells encircle, invade and destroy the PHF over an 8-day period. Invasion in this assay is defined as the progressive occupation and destruction of the PHF by the MCF-7/6 cells. Three-dimensional reconstruction of this interaction is obtained by microscopic analysis of all consecutive histological sections of the culture. The read-out is an invasion score according to a 5-grades histological scale.
The CHI closely reproduces the temporal, spatial and histological invasion patterns in man. The co-culture set-up probes for effects on both tumor cells and host tissue, and thus interrogates potential pharmacological targets in either interaction partner. Its use of histological evaluation allows discerning anti-invasive action from cytotoxicity or other effects.
We have submitted flavones B1-B4, flavanones B5-B8 and the intermediate 2′-hydroxychalcones A9, All and A12 to the chick heart invasion assay using MCF-7/6 aggregates. All compounds were evaluated at 1 μM and 100 nM; depending on the outcome higher or lower concentrations were subsequently evaluated. […] This table also includes CHI data on chalcones A1, A2 and A5.

Row | Compound | Young's modulus / spheroid stiffness, concentration range ([1]; 30 nM-3 μM, 48 h) | Young's modulus / spheroid stiffness [1] | IC50 value, metabolic activity of 2D cultures [2] | minimal effective concentration [3]
1 | COc1cc(C(=O)/C=C/c2ccc(F)cc2)cc(OC)c1OC [Compound A1, 3-(4-Fluorophenyl)-1-(3,4,5-trimethoxyphenyl)prop2-en-1-one] | dose-response behavior | significant decrease; also recorded: active | high micromolar | 0.01 µM
2 | COc1cc2oc(-c3ccc(F)cc3)cc(=O)c2c(OC)c1OC [Compound B1, 2-(4-Fluorophenyl)-5,6,7-trimethoxy-4H-chromen-4-one] |  | significant decrease; also recorded: active | high micromolar | 0.01 µM
